US8158750B2, “Preparation and standardization of immunomodulatory peptide-linked glucans with verifiable oral absorbability from coriolus versicolor” (The Chinese University of Hong Kong, priority 2002, dated 2012)

Test system: murine peritoneal macrophages
Test: Secretion of nitric oxide by murine peritoneal macrophages in vitro (Griess reaction)
Type: cell-based, ICR mice
Settings: 24 hours
Method: Ten ICR mice were injected intraperitoneally with 1 ml 3% w/v aqueous thioglycolate. After 3 days, the mice were sacrificed by cervical dislocation. Macrophages were harvested by opening the peritoneum and lavaging the space with PBS. The PBS lavage from each sacrificed mouse was pooled. […] The cells were allowed to adhere on the bottom of the wells of microtiter plates for 1 hr at 37° C. in a humidified atmosphere of […] and 5% CO2. Next, the supernatant in the wells was carefully removed. […] The contacted cells were incubated at 37° C. in a humidified atmosphere of […] and 5% CO2 for 24 hours. At 24 hours, the amount of nitrate present in the cell-free culture medium was determined by the Griess reaction. (See Green L. C. et al, Analysis of nitrate, nitrite, and [15N] nitrate in biological fluids, Anal. Biochem., 1982, 126:131-138.) A 150 μl aliquot of cell-free culture medium was pipetted from each microtiter plate well, and reacted with 50 μl of Griess reagent for 10 minutes in a fresh microtiter plate well. Absorbance of the aliquot was then measured at 540 nm using a microplate reader (BTI, ELX 800).

lipopolysaccharide [LPS]
Increased secretion of nitric oxide, dose dependence: dose-dependent at low LPS concentrations
